Several values for one entry are separate records, joined by “and”; a condition that tells them apart may be missing. Identical values can stand only once.
Assays:
[1] = target: Glutamate receptor ionotropic, kainate 2 (Homo sapiens, UniProt Q13002)
[2] = target: Glutamate receptor ionotropic, kainate 1 (Homo sapiens, UniProt P39086)
Glutamate receptor ionotropic, kainate 1, sequence (P39086 whole entry): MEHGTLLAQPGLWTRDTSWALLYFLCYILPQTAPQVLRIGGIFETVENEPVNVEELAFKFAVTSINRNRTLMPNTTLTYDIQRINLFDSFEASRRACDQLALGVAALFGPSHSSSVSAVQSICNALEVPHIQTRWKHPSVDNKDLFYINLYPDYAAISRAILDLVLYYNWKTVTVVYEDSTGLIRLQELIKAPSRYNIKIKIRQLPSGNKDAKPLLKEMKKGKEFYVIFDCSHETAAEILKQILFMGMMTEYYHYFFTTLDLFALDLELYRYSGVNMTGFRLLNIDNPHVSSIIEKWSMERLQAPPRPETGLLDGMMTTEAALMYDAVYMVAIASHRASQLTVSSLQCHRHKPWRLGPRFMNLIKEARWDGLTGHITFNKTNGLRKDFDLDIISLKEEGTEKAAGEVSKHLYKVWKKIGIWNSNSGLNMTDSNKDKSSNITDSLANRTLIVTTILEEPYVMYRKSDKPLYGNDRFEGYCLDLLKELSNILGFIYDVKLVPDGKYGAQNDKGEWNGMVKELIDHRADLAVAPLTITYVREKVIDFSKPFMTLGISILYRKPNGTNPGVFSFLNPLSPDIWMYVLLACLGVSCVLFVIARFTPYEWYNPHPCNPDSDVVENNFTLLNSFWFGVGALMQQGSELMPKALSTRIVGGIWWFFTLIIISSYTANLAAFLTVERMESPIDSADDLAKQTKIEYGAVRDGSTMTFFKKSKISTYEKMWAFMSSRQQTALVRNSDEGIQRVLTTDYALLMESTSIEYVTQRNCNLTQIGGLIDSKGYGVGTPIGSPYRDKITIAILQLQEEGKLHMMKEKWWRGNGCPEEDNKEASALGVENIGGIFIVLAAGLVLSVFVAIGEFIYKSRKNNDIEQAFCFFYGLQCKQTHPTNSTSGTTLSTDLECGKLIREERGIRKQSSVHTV

Glutamate receptor ionotropic, kainate 2, sequence (Q13002 whole entry): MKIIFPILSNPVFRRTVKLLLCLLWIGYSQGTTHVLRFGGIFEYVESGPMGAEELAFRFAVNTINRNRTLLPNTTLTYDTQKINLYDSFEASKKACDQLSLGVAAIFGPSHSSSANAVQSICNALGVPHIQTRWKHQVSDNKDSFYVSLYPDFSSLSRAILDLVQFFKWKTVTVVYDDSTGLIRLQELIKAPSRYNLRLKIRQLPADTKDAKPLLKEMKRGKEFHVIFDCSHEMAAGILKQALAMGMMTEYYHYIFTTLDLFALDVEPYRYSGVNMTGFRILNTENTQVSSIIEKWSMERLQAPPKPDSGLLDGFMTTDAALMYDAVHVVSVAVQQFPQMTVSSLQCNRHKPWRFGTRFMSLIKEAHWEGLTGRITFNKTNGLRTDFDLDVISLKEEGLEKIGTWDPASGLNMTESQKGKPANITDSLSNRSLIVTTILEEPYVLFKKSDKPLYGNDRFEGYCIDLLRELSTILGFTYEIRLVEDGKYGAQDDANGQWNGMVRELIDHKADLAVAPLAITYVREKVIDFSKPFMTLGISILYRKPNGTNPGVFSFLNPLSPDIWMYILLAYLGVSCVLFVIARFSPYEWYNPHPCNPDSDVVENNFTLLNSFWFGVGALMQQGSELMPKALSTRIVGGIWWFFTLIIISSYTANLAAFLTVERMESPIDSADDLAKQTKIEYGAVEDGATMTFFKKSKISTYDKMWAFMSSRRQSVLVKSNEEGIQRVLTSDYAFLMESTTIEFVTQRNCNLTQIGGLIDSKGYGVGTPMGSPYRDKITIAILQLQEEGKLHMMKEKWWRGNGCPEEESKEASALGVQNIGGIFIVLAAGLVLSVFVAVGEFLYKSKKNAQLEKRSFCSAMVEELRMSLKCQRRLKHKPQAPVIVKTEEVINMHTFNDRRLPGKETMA

Structure (SMILES) | Ki [1] | Ki [2]
O=C(Nc1cc(NC(=O)c2ccccc2)c(C(=O)O)cc1C(=O)O)c1ccccc1 [NS3763] | > 30 µM | > 10 µM and 1.6 µM
CN1CCc2c(-c3ccc(S(=O)(=O)N(C)C)cc3)cc3c(c2C1)NC(=O)/C3=N\OC(CCO)C(=O)O (stereo not drawn) [SPD 502] | > 10 µM | 

From BindingDB's records for doi:10.1124/jpet.103.062794 (Neurosearch, 2004)
